14 molecules from patent US12448389B2, “BRM targeting compounds and associated methods of use” (Prelude Therapeutics Incorporated, priority 2020, dated 2025) can be followed below.

As a reminder, the DC50 is the midpoint of the concentration-degradation curve. For orientation: Dmax means the largest share of the target that was removed.

Where only a bound is given, the exact number is not on record here.

Assay [1] addresses T1, SMARCA4-HiBiT (Homo sapiens, UniProt P51532).
T1 construct: SMARCA4-HiBiT knock-in Hela monoclonal cell (CS3023226); host or cells: HeLa monoclonal knock-in line (CRISPR HiBiT knock-in at the endogenous locus, heterozygous)
The experiment in a line: SMARCA4 HiBiT degradation assay in HeLa cells. It counts as cell-based. Particulars: 18 hours incubation; for DC50: read-out: HeLa-HiBit-SM4 DC50; for Dmax: HeLa, read-out: HeLa-HiBit-SM4 Dmax (%). Put shortly: (§1)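 HeLa monoclonal lines with heterozygous HiBiT knock-in were seeded at 2500 cells/well in EMEM with 10% FBS and treated with compound for 18 h at 37 °C. Remaining tagged protein was measured by Nano-Glo HiBiT lytic luminescence after 30–60 min at RT, and values came from curve fitting.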

In assay [2] the target is T2, SMARCA2-HiBiT (Homo sapiens, UniProt P51531).
T2 construct: SMARCA2-HiBiT knock-in Hela monoclonal cell (CS302366); host or cells: HeLa monoclonal knock-in line (CRISPR HiBiT knock-in at the endogenous locus, heterozygous)
T2 sequence (P51531 whole entry): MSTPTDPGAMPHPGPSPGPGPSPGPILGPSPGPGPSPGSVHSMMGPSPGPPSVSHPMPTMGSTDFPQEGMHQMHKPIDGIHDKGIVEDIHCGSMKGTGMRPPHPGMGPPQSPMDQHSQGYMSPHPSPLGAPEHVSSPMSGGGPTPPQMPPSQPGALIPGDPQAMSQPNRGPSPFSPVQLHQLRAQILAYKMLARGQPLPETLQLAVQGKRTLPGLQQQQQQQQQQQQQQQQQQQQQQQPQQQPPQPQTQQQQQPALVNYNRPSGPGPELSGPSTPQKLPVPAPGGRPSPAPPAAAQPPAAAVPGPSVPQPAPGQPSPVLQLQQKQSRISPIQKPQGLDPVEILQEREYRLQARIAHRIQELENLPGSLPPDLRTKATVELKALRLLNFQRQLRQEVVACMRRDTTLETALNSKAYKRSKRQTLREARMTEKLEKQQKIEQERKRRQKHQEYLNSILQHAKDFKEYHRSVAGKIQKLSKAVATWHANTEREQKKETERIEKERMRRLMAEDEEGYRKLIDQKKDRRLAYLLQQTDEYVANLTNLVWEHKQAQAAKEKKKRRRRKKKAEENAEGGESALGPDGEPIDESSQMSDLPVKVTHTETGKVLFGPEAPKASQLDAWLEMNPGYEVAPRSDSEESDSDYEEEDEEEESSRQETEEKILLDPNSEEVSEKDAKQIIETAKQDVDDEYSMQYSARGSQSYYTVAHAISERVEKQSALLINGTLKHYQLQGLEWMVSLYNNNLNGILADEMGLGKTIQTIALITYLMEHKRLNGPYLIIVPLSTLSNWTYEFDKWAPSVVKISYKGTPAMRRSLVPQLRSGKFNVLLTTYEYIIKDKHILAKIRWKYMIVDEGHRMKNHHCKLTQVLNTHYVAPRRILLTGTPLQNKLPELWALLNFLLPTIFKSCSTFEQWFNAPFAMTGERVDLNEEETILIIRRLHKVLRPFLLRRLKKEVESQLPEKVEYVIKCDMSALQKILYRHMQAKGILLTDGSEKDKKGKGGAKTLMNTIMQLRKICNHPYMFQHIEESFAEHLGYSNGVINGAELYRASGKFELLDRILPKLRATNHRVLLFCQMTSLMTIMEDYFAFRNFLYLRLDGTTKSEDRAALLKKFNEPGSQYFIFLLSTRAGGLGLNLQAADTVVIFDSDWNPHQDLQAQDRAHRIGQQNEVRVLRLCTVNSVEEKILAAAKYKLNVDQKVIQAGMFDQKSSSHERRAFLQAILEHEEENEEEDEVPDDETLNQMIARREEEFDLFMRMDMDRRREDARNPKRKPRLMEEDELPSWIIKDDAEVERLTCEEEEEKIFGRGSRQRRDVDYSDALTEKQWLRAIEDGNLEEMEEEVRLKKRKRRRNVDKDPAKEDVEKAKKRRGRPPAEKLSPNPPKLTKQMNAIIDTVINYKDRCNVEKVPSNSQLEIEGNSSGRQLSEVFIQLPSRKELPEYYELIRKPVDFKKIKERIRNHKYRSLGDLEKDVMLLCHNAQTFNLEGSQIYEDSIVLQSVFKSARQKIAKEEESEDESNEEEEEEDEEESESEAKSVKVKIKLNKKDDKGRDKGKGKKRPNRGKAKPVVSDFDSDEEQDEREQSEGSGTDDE
The experiment in a line: SMARCA2 HiBiT degradation assay in HeLa cells. It counts as cell-based. Particulars: 18 hours incubation; for DC50: read-out: HeLa_HiBit-SM2 DC50; for Dmax: HeLa, read-out: HeLa-HiBit-SM2 Dmax (%). The essentials: as §1

T1 sequence (P51532 whole entry): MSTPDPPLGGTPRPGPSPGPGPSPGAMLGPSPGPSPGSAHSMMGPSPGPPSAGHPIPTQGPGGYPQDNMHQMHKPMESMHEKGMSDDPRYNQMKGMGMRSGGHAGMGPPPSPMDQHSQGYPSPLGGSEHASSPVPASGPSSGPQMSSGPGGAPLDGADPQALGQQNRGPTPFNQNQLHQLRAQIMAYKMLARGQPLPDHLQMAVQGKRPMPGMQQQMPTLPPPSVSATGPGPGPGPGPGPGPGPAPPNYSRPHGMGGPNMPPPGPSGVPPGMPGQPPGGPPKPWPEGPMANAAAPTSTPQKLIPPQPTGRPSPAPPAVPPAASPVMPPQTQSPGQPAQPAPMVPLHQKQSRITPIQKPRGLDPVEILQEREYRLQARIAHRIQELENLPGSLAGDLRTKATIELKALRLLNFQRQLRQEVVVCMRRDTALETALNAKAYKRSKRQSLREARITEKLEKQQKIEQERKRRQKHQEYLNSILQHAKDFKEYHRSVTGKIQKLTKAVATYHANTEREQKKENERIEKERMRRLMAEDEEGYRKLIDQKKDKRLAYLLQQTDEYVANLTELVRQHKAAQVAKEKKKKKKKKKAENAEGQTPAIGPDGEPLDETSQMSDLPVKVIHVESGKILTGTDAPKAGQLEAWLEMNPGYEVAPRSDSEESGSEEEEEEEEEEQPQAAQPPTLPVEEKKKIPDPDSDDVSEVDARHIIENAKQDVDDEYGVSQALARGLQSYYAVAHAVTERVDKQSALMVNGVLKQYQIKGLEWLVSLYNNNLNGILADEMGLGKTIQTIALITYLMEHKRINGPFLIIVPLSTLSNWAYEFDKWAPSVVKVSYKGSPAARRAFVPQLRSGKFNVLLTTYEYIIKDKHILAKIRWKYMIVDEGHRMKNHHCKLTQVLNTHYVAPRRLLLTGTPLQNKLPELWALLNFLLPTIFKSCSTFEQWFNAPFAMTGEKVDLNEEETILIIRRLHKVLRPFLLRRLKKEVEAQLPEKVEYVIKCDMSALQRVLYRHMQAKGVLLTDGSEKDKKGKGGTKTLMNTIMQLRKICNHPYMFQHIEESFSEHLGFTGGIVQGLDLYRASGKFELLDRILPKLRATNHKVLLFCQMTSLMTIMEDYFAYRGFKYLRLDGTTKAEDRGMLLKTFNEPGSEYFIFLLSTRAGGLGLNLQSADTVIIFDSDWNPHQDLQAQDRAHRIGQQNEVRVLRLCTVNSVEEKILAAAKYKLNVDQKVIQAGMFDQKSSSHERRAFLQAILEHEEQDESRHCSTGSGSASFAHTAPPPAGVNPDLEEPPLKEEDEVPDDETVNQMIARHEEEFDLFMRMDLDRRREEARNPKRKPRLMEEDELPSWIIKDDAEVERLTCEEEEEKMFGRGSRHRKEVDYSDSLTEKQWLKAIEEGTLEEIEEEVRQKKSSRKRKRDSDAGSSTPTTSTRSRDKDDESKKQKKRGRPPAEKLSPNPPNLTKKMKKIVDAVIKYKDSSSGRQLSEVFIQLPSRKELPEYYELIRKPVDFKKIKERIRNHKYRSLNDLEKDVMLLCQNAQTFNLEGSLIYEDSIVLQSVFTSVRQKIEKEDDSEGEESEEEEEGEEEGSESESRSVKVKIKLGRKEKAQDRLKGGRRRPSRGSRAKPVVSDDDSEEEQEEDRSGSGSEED

For the molecule `O=C1CCC(N2C(=O)c3ccc(N4CCC(NC56CC(CN7CCN8c9cc(-c%10ccccc%10O)nnc9NC[C@H]8C7)(C5)C6)CC4)cc3C2=O)C(=O)N1` (stereo partly drawn) [Example 135, 2-(2,6-dioxopiperidin-3-yl)-5-(4-((3-(((S)-2-(2-hydroxyphenyl)-5,6,6a,7,9,10-hexahydro-8H-pyrazino[1′,2′:4,5]pyrazino[2,3-c]pyridazin-8-yl)methyl)bicyclo[1.1.1]pentan-1-yl)amino)piperidin-1-yl)isoindoline-1,3-dione], in assay [1], the DC50 is < 10 nM and the greatest degradation seen (Dmax) was 50 to 75%. In assay [2], the half-maximal degradation concentration (DC50) is < 10 nM and the Dmax was 75 to 85%.
Consider `CN1CCN(c2ccc3c(c2)C(=O)N(C2CCC(=O)NC2=O)C3=O)CC1CN1C[C@@H]2[C@H](C1)[C@H]2CN1CCN2c3cc(-c4ccccc4O)nnc3NC[C@H]2C1` (stereo partly drawn) [Example 56, 2-(2,6-dioxopiperidin-3-yl)-5-(3-(((1R,5S,6r)-6-(((S)-2-(2-hydroxyphenyl)-5,6,6a,7,9,10-hexahydro-8H-pyrazino[1′,2′:4,5]pyrazino[2,3-c]pyridazin-8-yl)methyl)-3-azabicyclo[3.1.0]hexan-3-yl)methyl)-4-methylpiperazin-1-yl)isoindoline-1,3-dione], for which, in assay [1], the DC50 is 10 to 100 nM and the Dmax was 75 to 85%. For the same molecule, in assay [2], the half-maximal degradation concentration (DC50) was < 10 nM and the Dmax was 50 to 75%.
For `O=C1CCC(N2C(=O)c3ccc(N4CCC(CN5CCC(C(=O)N6CCN7c8cc(-c9ccccc9O)nnc8NC[C@H]7C6)CC5)C(F)(F)C4)cc3C2=O)C(=O)N1` (stereo partly drawn) [Example 196, 5-[3,3-difluoro-4-[[4-[(10S)-4-(2-hydroxyphenyl)-1,5,6,8,12-pentazatricyclo[8.4.0.02,7]tetradeca-2(7),3,5-trien-12-carbonyl]piperidin-1-yl]methyl]piperidin-1-yl]-2-(2,6-dioxopiperidin-3-yl) isoindole-1,3-dione], in that order: 10 to 100 nM, 50 to 75%, < 10 nM and 75 to 85%.
`O=C1CCC(N2Cc3cc(N4CCO[C@H](CN5C[C@@H]6[C@H](C5)[C@H]6CN5CCN6c7cc(-c8ccccc8O)nnc7NC[C@H]6C5)C4)ccc3C2=O)C(=O)N1` (stereo partly drawn) [Example 268, 3-(5-((R)-2-(((1R,5S,6S)-6-(((S)-2-(2-hydroxyphenyl)-5,6,6a,7,9,10-hexahydro-8H-pyrazino[1′,2′:4,5]pyrazino[2,3-c]pyridazin-8-yl)methyl)-3-azabicyclo[3.1.0]hexan-3-yl)methyl)morpholino)-1-oxoisoindolin-2-yl)piperidine-2,6-dione]: in assay [1], the 50% degradation concentration (DC50) is < 10 nM and the Dmax fell in the range of 50 to 75%. In assay [2], the half-maximal degradation concentration (DC50) is < 10 nM and the maximal degradation (Dmax) was 75 to 85%.
As for `O=C1CCC(N2C(=O)c3ccc(N4CCN(C5CCN(CCN6CCN7c8cc(-c9ccccc9O)nnc8NC[C@H]7C6)C5)CC4)cc3C2=O)C(=O)N1` (stereo partly drawn) [Example 221, 2-(2,6-dioxopiperidin-3-yl)-5-(4-(1-(2-((S)-2-(2-hydroxyphenyl)-5,6,6a,7,9,10-hexahydro-8H-pyrazino[1′,2′:4,5]pyrazino[2,3-c]pyridazin-8-yl)ethyl)pyrrolidin-3-yl)piperazin-1-yl) isoindoline-1,3-dione], in assay [1], the 50% degradation concentration (DC50) is < 10 nM and the Dmax lay in the range of 50 to 75%. In assay [2], the DC50 was < 10 nM and the Dmax was in the range of 75 to 85%.
With `O=C1CCC(N2C(=O)c3ccc(N4CC[C@@H](CN5C[C@@H]6[C@H](C5)[C@H]6CN5CCN6c7cc(-c8ccccc8O)nnc7NC[C@H]6C5)[C@H](F)C4)cc3C2=O)C(=O)N1` (stereo partly drawn) [Example 200, 2-(2,6-dioxopiperidin-3-yl)-5-[(3S,4S)-3-fluoro-4-[[(1S,5R)-6-[[(10S)-4-(2-hydroxyphenyl)-1,5,6,8,12-pentazatricyclo [8.4.0.02,7]tetradeca-2(7),3,5-trien-12-yl]methyl]-3-azabicyclo[3.1.0]hexan-3-yl]methyl]piperidin-1-yl]isoindole-1,3-dione], in assay [1], the “HeLa-HiBit-SM4 Dmax (%)” value is recorded as “C (C=50%<Dmax<=75%)” and the 50% degradation concentration (DC50) is < 10 nM. In assay [2], the DC50 was < 10 nM and the Dmax is 75 to 85%.
As for `O=C1CCC(N2C(=O)c3ccc(OC4CCN(CC5CCN(C(=O)N6CCN7c8cc(-c9ccccc9O)nnc8NC[C@H]7C6)CC5)CC4)cc3C2=O)C(=O)N1` (stereo partly drawn) [Example 145, 2-(2,6-dioxopiperidin-3-yl)-5-((1-((1-((S)-2-(2-hydroxyphenyl)-6,6a,7,8,9,10-hexahydro-5H-pyrazino[1′,2′:4,5]pyrazino[2,3-c]pyridazine-8-carbonyl)piperidin-4-yl)methyl)piperidin-4-yl)oxy)isoindoline-1,3-dione], the results for the DC50 in assay [1] and in assay [2] were 10 to 100 nM and < 10 nM, respectively. In addition, the Dmax in assay [1] and in assay [2] was 75 to 85% throughout.
As for `CC(C1CCN(c2ccc3c(c2)C(=O)N(C2CCC(=O)NC2=O)C3=O)CC1)N1CCC(CCCN2CCN3c4cc(-c5ccccc5O)nnc4NC[C@H]3C2)CC1` (stereo partly drawn) [Example 248, 2-(2,6-dioxopiperidin-3-yl)-5-(4-(1-(4-(3-((S)-2-(2-hydroxyphenyl)-5,6,6a,7,9,10-hexahydro-8H-pyrazino[1′,2′:4,5]pyrazino[2,3-c]pyridazin-8-yl)propyl)piperidin-1-yl)ethyl)piperidin-1-yl)isoindoline-1,3-dione], in assay [1], the half-maximal degradation concentration (DC50) is < 10 nM and the greatest degradation seen (Dmax) was > 85%. Moreover, in assay [2], the DC50 is < 10 nM and the maximal degradation (Dmax) is > 85%.
As for `O=C1CCC(N2C(=O)c3ccc(N4CCC(CN5CCC(N6CCN7c8cc(-c9ccccc9O)nnc8NC[C@H]7C6)CC5)CC4)cc3C2=O)C(=O)N1` (stereo partly drawn) [Example 30, 2-(2,6-dioxopiperidin-3-yl)-5-(4-((4-((S)-2-(2-hydroxyphenyl)-5,6,6a,7,9,10-hexahydro-8H-pyrazino[1′,2′:4,5]pyrazino[2,3-c]pyridazin-8-yl)piperidin-1-yl)methyl)piperidin-1-yl)isoindoline-1,3-dione], the half-maximal degradation concentration (DC50) in assay [1] and in assay [2] was < 10 nM each time. Besides, the maximal degradation (Dmax) in assay [1] and in assay [2] was > 85% each time.
With `O=C1CCC(N2C(=O)c3ccc(N4CCC(N[C@H]5C[C@@H](CN6CCN7c8cc(-c9ccccc9O)nnc8NC[C@H]7C6)C5)CC4)cc3C2=O)C(=O)N1` (stereo partly drawn) [Example 76, 2-(2,6-dioxopiperidin-3-yl)-5-(4-(((1R,3s)-3-(((S)-2-(2-hydroxyphenyl)-5,6,6a,7,9,10-hexahydro-8H-pyrazino[1′,2′:4,5]pyrazino[2,3-c]pyridazin-8-yl)methyl)cyclobutyl)amino)piperidin-1-yl)isoindoline-1,3-dione], in assay [1], the DC50 was < 10 nM and the greatest degradation seen (Dmax) is > 85%. In addition, in assay [2], the 50% degradation concentration (DC50) was < 10 nM and the Dmax was > 85%.
As to `O=C1CCC(N2C(=O)c3ccc(N4CCOC(CN5C[C@@H]6[C@H](C5)[C@H]6CN5CCN6c7cc(-c8ccccc8O)nnc7NC[C@H]6C5)C4)cc3C2=O)C(=O)N1` (stereo partly drawn) [Example 49, 2-(2,6-dioxopiperidin-3-yl)-5-(2-(((1R,5S,6s)-6-(((S)-2-(2-hydroxyphenyl)-5,6,6a,7,9,10-hexahydro-8H-pyrazino[1′,2′:4,5]pyrazino[2,3-c]pyridazin-8-yl)methyl)-3-azabicyclo[3.1.0]hexan-3-yl)methyl)morpholino)isoindoline-1,3-dione], the DC50 in assay [1] and in assay [2] was < 10 nM each time. The Dmax in assay [1] was 75 to 85%; in assay [2], > 85%.
Take `O=C1CCC(N2C(=O)c3cccc(N4CCC(CN5CCC(CN6CCN7c8cc(-c9ccccc9O)nnc8NC[C@H]7C6)CC5)CC4)c3C2=O)C(=O)N1` (stereo partly drawn) [Example 127, 2-(2,6-dioxopiperidin-3-yl)-4-(4-((4-(((S)-2-(2-hydroxyphenyl)-5,6,6a,7,9,10-hexahydro-8H-pyrazino[1′,2′:4,5]pyrazino[2,3-c]pyridazin-8-yl)methyl)piperidin-1-yl)methyl)piperidin-1-yl) isoindoline-1,3-dione]: the 50% degradation concentration (DC50) in assay [1] and in assay [2] was < 10 nM throughout. Also, the Dmax in assay [1] is 75 to 85%; in assay [2], > 85%.
As for `O=C1CCC(N2Cc3cc(N4CCN(CC5CCN(CCN6CCN7c8cc(-c9ccccc9O)nnc8NC[C@H]7C6)CC5)CC4)ccc3C2=O)C(=O)N1` (stereo partly drawn) [Example 217, 3-(5-(4-((1-(2-((S)-2-(2-hydroxyphenyl)-5,6,6a,7,9,10-hexahydro-8H-pyrazino [1′,2′:4,5]pyrazino[2,3-c]pyridazin-8-yl)ethyl)piperidin-4-yl)methyl)piperazin-1-yl)-1-oxoisoindolin-2-yl)piperidine-2,6-dione], in assay [1], the DC50 is < 10 nM and the greatest degradation seen (Dmax) was > 85%. For the same molecule, in assay [2], the DC50 was < 10 nM and the greatest degradation seen (Dmax) is > 85%.
Take `CC1(CN2CCN3c4cc(-c5ccccc5O)nnc4NC[C@H]3C2)CCN(CC2CCN(c3ccc4c(c3)C(=O)N(C3CCC(=O)NC3=O)C4=O)CC2)CC1` (stereo partly drawn) [Example 37, 2-(2,6-dioxopiperidin-3-yl)-5-(4-((4-(((S)-2-(2-hydroxyphenyl)-5,6,6a,7,9,10-hexahydro-8H-pyrazino[1′,2′:4,5]pyrazino[2,3-c]pyridazin-8-yl)methyl)-4-methylpiperidin-1-yl)methyl)piperidin-1-yl)isoindoline-1,3-dione]: in assay [1], the DC50 is < 10 nM and the greatest degradation seen (Dmax) was > 85%. In assay [2], the DC50 was < 10 nM and the Dmax is > 85%.
